# Patent US5470858A, “Derivatives of (hetero)aromatic ethers and thioethers having antihyperlipidemic activity, process for their preparation and pharmaceutical compositions containing them” (Pierrel SpA, priority 1991, dated 1995)
# Where two headings read alike, the source gives them in different places.
# Assays:
# Type in all cases: in vivo
# [1] = system: hyperlipaemic SD male rats; assay: Hypolipemizing activity, 15 days experimental model, modified diet; settings: rat, oral; for Cholesterol VLDL + LDL (percent variation vs hyperlipaemic controls): by difference between total and HDL; for Hepatic index (percent variation vs hyperlipaemic controls): index = (Liver weight/body weight) × 100
# Method: (§1) The hypolipemizing activity of the compounds of the present invention has been evaluated in the rat using SD male animals (Charles River) of an initial weight of 150 g, housed in controlled environment at a temperature of 21°±1° C., relative humidity 60% and a 12 hours light/dark cycle.
# Experimental models have been used in which the animals are rendered hiperlipaemic by "ad libitum" food administration with a modified Nath diet (Atherosclerosis 30, 1978, pag. 45-46) having the following composition:
# In the second model a diet was used which was modified with respect to the former one by the following parameters: […]
# The animals were fasted with this diet for 15 days consecutively, during which they received the pharmacological treatment once a day by oral route and were sacrificed 24 hours after the last administration. At the sacrifice time the blood was removed for the lipid determination and the liver was removed as well to be weighed and used for the evaluation of the catalase enzyme as the index of the peroxysomes proliferation and thus of hepatotoxicity.
# This experimental model has been used only for the molecules which in the first model were found more promising, and has permitted to get values of the serum lipids from 2 to 3 times higher than the normal values both for the total cholesterol and for the triglycerides.
# This experimental model was used to:
# a) evaluate the effectiveness on a less marked hyperlipoproteinaemy, and
# b) assess mainly at the hepatic level the tolerability of the compounds during a more extended treatment.
# (§2) The determination of the triglycerides, of the total cholesterol and of the cholesterol associated to the HDL has been effected by means of a commercial enzymatic kit. The concentration of the cholesterol associated to VLDL+LDL has been determined by difference between total cholesterol and HDL.
# On the basis of the indications provided by this screening the most interesting compounds have been evaluated by the 15 days experimental model which permits both the evaluation of the effectiveness in the case of a hyperlipaemia less marked and more constant, and the tolerability control of the compounds during a longer term treatment.
# In this case too the results (reported in the following table 2) are expressed as the percent variation with respect to the hyperlipaemic controls to which carboxymethylcellulose as 0.5% in water was administered by oral route at the dose of 10 ml/kg/day. The same vehicle was used for the suspension of the compounds being tested, administered at the doses; of 50 and 100 mg/kg/day by oral route.
# catalase enzyme = assay: Hepatic tolerability, 15 days at high dose: catalase enzyme activity in liver (index of peroxysomes proliferation); settings: rat liver, oral, 15 days, 300 mg/kg/day; absolute values; solvent 539,8
# Method: (§3) The hypolipemizing activity of the compounds of the present invention has been evaluated in the rat using SD male animals (Charles River) of an initial weight of 150 g, housed in controlled environment at a temperature of 21°±1° C., relative humidity 60% and a 12 hours light/dark cycle. The animals were fasted with this diet for 15 days consecutively, during which they received the pharmacological treatment once a day by oral route and were sacrificed 24 hours after the last administration. At the sacrifice time the blood was removed for the lipid determination and the liver was removed as well to be weighed and used for the evaluation of the catalase enzyme as the index of the peroxysomes proliferation and thus of hepatotoxicity. In order to evaluate the hepatic tolerability of the compounds of interest they have been administered for 15 days at a high dose (300 mg/kg/day) according to the same conditions of the previous experiment.24 hours after the last treatment the animals have been sacrificed, and the liver has been removed and stored at -20° C. up to the time of dosing the activity of the catalase enzyme (Methods of enzymatic analysis, vol.2, pag. 673, 1974 edit. H. U. Bergmeyer, Verlag Chemie International).
# [2] = system: hyperlipaemic SD male rats; assay: Hypolipemizing activity, 5 days experimental model, modified Nath diet; settings: rat, oral; for change in vivo at 100 mg/kg/day / change in vivo at 300 mg/kg/day: 120 h; for Hepatic index (percent variation vs hyperlipaemic controls): index = (Liver weight/body weight) × 100
# Method: as §1
# Experimental models have been used in which the animals are rendered hiperlipaemic by "ad libitum" food administration with a modified Nath diet (Atherosclerosis 30, 1978, pag. 45-46) having the following composition: […]
# hydrogenated coconut oil
# In the first model the animals have been fed with this diet for 5 consecutive days, during which they received the pharmacological treatment once a day by oral route and were sacrificed 2 hours after the last administration.
# At the time of the sacrifice the blood was removed, for the lipid determination, as well as the liver the weight of which was the index of a possible hepatomegaly.
# By this experimental model the concentration of the serum lipids attained very high values which, in the control group, was four times the normal values for the total cholesterol and the triglycerides.
# as §2
# The results obtained in the experimental model of the 5 days duration for some compounds representative of the invention are reported in the following table 1. The data are expressed as percent variation with respect to the hyperlipaemic controls to which carboxymethylcellulose as 0.5% in water at the dose of 10 ml/kg/day by oral route was administered. The same vehicle was used for the suspension of the tested compounds at the doses of 100 and 300 mg/kg/day by oral route.
# liver = assay: Hepatic tolerability, 15 days at high dose: hepatic index; settings: rat, oral, 15 days, 300 mg/kg/day; absolute values; solvent 5,4
# Method: as §3
# [3] = 100 mg/kg/day, by difference between total and HDL, read-out: Cholesterol VLDL + LDL (percent variation vs hyperlipaemic controls)
# [4] = 100 mg/kg/day, read-out: Cholesterol HDL (percent variation vs hyperlipaemic controls)
# [5] = 100 mg/kg/day, read-out: Total Cholesterol (percent variation vs hyperlipaemic controls)
# [6] = 100 mg/kg/day, read-out: Triglycerides (percent variation vs hyperlipaemic controls)
# [7] = 300 mg/kg/day, by difference between total and HDL, read-out: Cholesterol VLDL + LDL (percent variation vs hyperlipaemic controls)
# [8] = 300 mg/kg/day, read-out: Total Cholesterol (percent variation vs hyperlipaemic controls)
# [9] = 300 mg/kg/day, read-out: Triglycerides (percent variation vs hyperlipaemic controls)
SMILES,Cholesterol HDL (percent variation vs hyperlipaemic controls) ([1]; 50 mg/kg/day),Total Cholesterol (percent variation vs hyperlipaemic controls) ([1]; 50 mg/kg/day),Triglycerides (percent variation vs hyperlipaemic controls) ([1]; 50 mg/kg/day),Cholesterol VLDL + LDL (percent variation vs hyperlipaemic controls) ([1]; 50 mg/kg/day),Hepatic index (percent variation vs hyperlipaemic controls) ([1]; 50 mg/kg/day),Cholesterol HDL (percent variation vs hyperlipaemic controls) ([1]; 100 mg/kg/day),Total Cholesterol (percent variation vs hyperlipaemic controls) ([1]; 100 mg/kg/day),Triglycerides (percent variation vs hyperlipaemic controls) ([1]; 100 mg/kg/day),Cholesterol VLDL + LDL (percent variation vs hyperlipaemic controls) ([1]; 100 mg/kg/day),Hepatic index (percent variation vs hyperlipaemic controls) ([1]; 100 mg/kg/day),Catalase enzyme activity (catalase enzyme),"change in vivo at 100 mg/kg/day [2, 3] [%]","change in vivo at 100 mg/kg/day [2, 4] [%]","change in vivo at 100 mg/kg/day [2, 5] [%]","change in vivo at 100 mg/kg/day [2, 6] [%]","change in vivo at 300 mg/kg/day [2, 7] [%]","change in vivo at 300 mg/kg/day [2, 8] [%]","change in vivo at 300 mg/kg/day [2, 9] [%]",Hepatic index (percent variation vs hyperlipaemic controls) ([2]; 300 mg/kg/day),Hepatic index (Liver weight/body weight) × 100 (liver),also measured
CC(C)COC(=O)c1ccc(OCC(=O)CSc2nc3c(N)ncnc3n2[C@@H]2O[C@H](CO)[C@@H](O)[C@H]2O)cc1 [Example 28],"+11,3%","-23,3%","-27,3%","-28,1%","+0,6%","+21,0%","-35,3%","-35,1%","-41,7%","-1,9%","479,7 umoli/min/mg proteins",-15.1,5.7,-14,-16.3,-33.7,-31.3,-22.5,"-5,5%","5,6","change in vivo at 300 mg/kg/day ([2]; 300 mg/kg/day, read-out: Cholesterol HDL (percent variation vs hyperlipaemic controls)): 22.7%"
"CC(C)COC(=O)c1ccc(OCC(O)CSc2nc3ccccc3s2)cc1 (stereo not drawn) [Example 6, 2-[3-[(p-isobutyloxycarbonyl)-phenoxy]-2-hydroxy-propylthio]-benzothiazole]","+1,0%","-16,1%","-18,2%","-19,0%","-1,7%","+4,3%","-19,0%","-49,1%","-21,7%","-4,1%","504,6 umoli/min/mg proteins",-18.8,7.7,-17,-15.6,-27.9,-24.9,-23.4,"+0,4%","5,9","Hepatic index (percent variation vs hyperlipaemic controls) ([2]; 100 mg/kg/day): +2,2%"
